# Test results as given in publication PMC4919369, “A phase I study of the investigational NEDD8-activating enzyme inhibitor pevonedistat (TAK-924/MLN4924) in patients with metastatic melanoma” (Investigational New Drugs, 2016).
# Several values for one entry are separate records, joined by “and”; a condition that tells them apart may be missing. Identical values can stand only once. Entries after “also recorded” stand apart in the source; their conditions may differ. Like-named read-outs stand apart in the source and are kept apart here.
# Key:
# [1] = system: patients with metastatic melanoma; assay: Adverse events (NCI CTCAE v3.0) in the phase I study, safety population; assay type: in vivo
# Description: (§1) Patients received pevonedistat as 1 h intravenous infusions either on Days 1, 4, 8, and 11 (schedule A) or on Days 1, 8, and 15 (schedule B, weekly dosing) of 21-day cycles. For schedule A, intermittent dosing on Days 1, 4, 8, and 11 was chosen to match the twice-weekly schedule of the proteasome inhibitor bortezomib. The starting dose of 50 mg/m^2 was selected based on the toxicities and the MTD observed in another phase I study that investigated pevonedistat administration on Days 1–5 of 21-day cycles in patients with advanced solid tumors. It was hypothesized that intermittent dosing – extending the dose over a 2-week period – would be better tolerated than the continuous dosing schedule, which was associated with severe hepatotoxicity. Schedule B, which was added subsequently through a protocol amendment, was based on the rationale that weekly bortezomib has similar efficacy and is more convenient than the twice-weekly schedule. […] Patients could receive pevonedistat until disease progression or unacceptable drug-related toxicity, up to a maximum of 12 months.
# (§2) Adverse events (AEs) were graded using the National Cancer Institute’s Common Terminology Criteria for AEs version 3.0. Response was assessed using the modified RECIST guideline (v1.1). Computed tomography or magnetic resonance imaging scans were performed at screening, at the end of Cycle 2, and then every other cycle.
# [2] = system: patients with metastatic melanoma; assay: Dose escalation: DLTs and MTD determination (Bayesian continual reassessment method); assay type: in vivo; details: schedule A (Days 1, 4, 8, and 11 of 21-day cycles), 1 h intravenous infusion
# Description: as §1
# Dose escalation proceeded via a Bayesian continual reassessment method using 2-patient cohorts and 1.33-fold dose increments over the previous dose level. Dose escalation decisions were based on occurrence of DLTs in Cycle 1 and the predicted MTD from the continual reassessment model (Supplementary Fig. S1). […]
# [3] = system: NAE-regulated transcriptional targets (ATF3, GCLM, GSR, MAG1, NQ01, SLC7A11, SRXN1, and TXNRD1); assay: RT-PCR of NAE-regulated transcripts in whole blood; assay type: in vivo, human
# Description: Blood samples for PD analysis were collected during Cycle 1. […] On schedule B samples were collected: at screening; on Day 1 within 1 h before dosing and 1, 2, 4, and 8 h after completion of infusion; on Day 8 within 1 h before dosing; and on Day 15 within 1 h before dosing and 1, 2, and 4 h after completion of infusion. Gene expression of NAE-regulated transcriptional targets (ATF3, GCLM, GSR, MAG1, NQ01, SLC7A11, SRXN1, and TXNRD1) in whole blood was analyzed by reverse-transcription polymerase chain reaction (RT-PCR). Raw data were transformed prior to calculation of percent change and assumptions were made for missing data, as previously described. Summary statistics were generated for the percent change from baseline at each time point for each gene.
# [4] = system: pevonedistat–NEDD8 adduct, Cdt1 and Nrf-2; assay: Immunohistochemistry of paired tumor biopsies; assay type: in vivo, human
# Description: For patients in the MTD expansion cohort, paired tumor biopsies were obtained at screening and at 3–6 h post-dosing on Day 4 (schedule A) or Day 8 (schedule B). […] Immunohistochemical analyses were performed at Millennium Pharmaceuticals, Inc. as previously described.
# [5] = system: patients with metastatic melanoma; assay: Antitumor activity, response by modified RECIST v1.1; assay type: in vivo, human
# Description: as §2
# [6] = system: patients with multiple myeloma or lymphoma; design: method as in PMID 26561559; details: cited from earlier work
# [7] = system: patients with solid tumors; design: method as in PMID 26423795; details: cited from earlier work
# [8] = system: patients with relapsed/refractory AML or MDS; design: method as in PMID 25733005; details: cited from earlier work; for MTD: single-agent
# [9] = system: treatment-naïve elderly patients with AML; design: method as in earlier work; details: in combination with azacitidine, Days 1, 3, and 5 schedule; cited from earlier work
# [10] = system: NAE; design: method as in PMID 21779466, PMID 15688063, PMID 19360080, PMID 23416079, PMID 24853380; details: NAE inhibition; cited from earlier work
# [11] = clinical; details: human, in vivo
# Description: (§3) Blood samples (3 mL) for PK analysis were collected during Cycle 1. On schedule A, serial samples were collected within 1 h before dosing on Day 1, immediately after completion of infusion (immediately before switching off infusion pump), and at 1, 4, and 7 h after completion of infusion. Samples were also collected on Days 2 and 3; on Days 4 and 8 (immediately before dosing and immediately after completion of infusion); on Day 11 immediately before dosing, immediately after completion of infusion, and at 4 and 7 h after completion of infusion; and on Day 15. On schedule B, blood samples were collected within 1 h before dosing on Day 1, immediately after completion of infusion (immediately before switching off infusion pump), and at 1, 2, 4, and 7 h after completion of infusion. Samples were also collected on Days 2, 3, and 4; and on Days 8 and 15 (immediately before dosing and immediately after completion of infusion). Samples were analyzed at Tandem Labs (West Trenton, NJ) for pevonedistat plasma concentrations using Good Laboratory Practice-validated liquid chromatography/tandem mass spectrometry methods. The dynamic ranges were 1–500 ng/mL for the low-range assay and 75–7500 ng/mL for the high-range assay.
# (§4) The PK-evaluable population included all patients who received all protocol-defined doses in Cycle 1, had sufficient plasma concentration–time data to reliably estimate PK parameters, and had not received any excluded concomitant medications per protocol. Individual pevonedistat plasma concentration–time data were analyzed by noncompartmental methods using WinNonlin software (Version 6.2, Pharsight Corporation, Cary, NC). Plasma concentrations below the lower limit of quantification were set to zero for analysis.
# [12] = Plasma pharmacokinetics (LC/MS/MS, noncompartmental analysis); details: for Dose proportionality of plasma exposure: 50–278 mg/m^2, after Day 1 intravenous infusion; for Disposition profile following completion of the intravenous infusion: schedules A and B
# Description: as §3, §4
# [13] = Cycle 1, Day 1, 7 h post-dose, Schedule A MTD, 209 mg/m^2 (n=11)
# [14] = Cycle 1, Day 1, 8 h post-dose, Schedule B, 157 mg/m^2 (n=8)
# [15] = the patient with partial response, 209 mg/m^2 schedule A
# [16] = nine melanoma patients in the first-in-human phase I study
# [17] = human, plasma, intravenous, 157 mg/m^2
compound,measurement,setting,value
"NS(=O)(=O)OC[C@@H]1C[C@@H](n2ccc3c(N[C@H]4CCc5ccccc54)ncnc32)C[C@@H]1O [pevonedistat, Pevonedistat]",On-study death,[1]; Schedule A (n = 26),2 (8) n (%)
same,On-study death,[1]; Schedule B (n = 11),1 (9) n (%)
same,Severity of peripheral neuropathy,"[1]; human, in vivo",mild (grade 1)
same,Patients who experienced acute organ failure toxicities,[1]; in vivo,Two
same,Tolerability at the MTD,"[1]; schedule A, 209 mg/m^2",generally well tolerated
same,Drug-related death,"[1]; schedule A, 209 mg/m^2, one patient after one dose, Day 9 of Cycle 1",grade 5 acute renal failure; also recorded: died due to drug-related acute renal failure
same,Maximum tolerated dose (MTD),[2],209 mg/m^2
same,"ATF3 transcript, median % change from baseline (range)",[3]; [13],88.6 (–38.6 to 385.0) %
same,"GCLM transcript, median % change from baseline (range)",[3]; [13],105.3 (–33.0 to 234.2) %
same,"GSR transcript, median % change from baseline (range)",[3]; [13],196.6 (–54.2 to 447.6) %
same,"MAG1 transcript, median % change from baseline (range)",[3]; [13],99.1 (–22.4 to 236.4) %
same,"NQ01 transcript, median % change from baseline (range)",[3]; [13],681.2 (–49.7 to 2740.6) %
same,"SLC7A11 transcript, median % change from baseline (range)",[3]; [13],837.0 (–65.3 to 3873.9) %
same,"SRXN1 transcript, median % change from baseline (range)",[3]; [13],142.0 (–50.5 to 340.0) %
same,"TXNRD1 transcript, median % change from baseline (range)",[3]; [13],220.7 (–41.7 to 347.7) %
same,"ATF3 transcript, median % change from baseline (range)",[3]; [14],260 (30.8 to 541.4) %
same,"GCLM transcript, median % change from baseline (range)",[3]; [14],65.4 (20.0–108.0) %
same,"GSR transcript, median % change from baseline (range)",[3]; [14],176.2 (93.2–216.6) %
same,"MAG1 transcript, median % change from baseline (range)",[3]; [14],81.7 ( 39.0–158.2) %
same,"NQ01 transcript, median % change from baseline (range)",[3]; [14],833.8 (330.6–2202.3) %
same,"SLC7A11 transcript, median % change from baseline (range)",[3]; [14],727.4 (184.7 to 1660.0) %
same,"SRXN1 transcript, median % change from baseline (range)",[3]; [14],81.5 (43.3 to 185.3) %
same,"TXNRD1 transcript, median % change from baseline (range)",[3]; [14],156.9 (87.8 to 234.9) %
same,Change of all eight NAE-regulated gene transcripts post-treatment,[3]; MTD on schedule A and schedule B,increases in NAE-regulated transcripts post-treatment; also recorded: significantly increased
same,Doses at which induction of all NAE-regulated transcriptional targets was observed,[3]; data not shown,≥ 50 mg/m^2
same,pevonedistat–NEDD8 adduct in post-dose tumor biopsy samples,"[4]; 3–6 h after Cycle 1, Day 4 dose, 3 patients, Schedule A MTD expansion cohort",positive
same,Immunohistochemical expression of Cdt1 and Nrf-2 in tumor,"[4]; one patient with adequate biopsy tissue, schedule A MTD",increased post-treatment
same,Best response: progressive disease,[5]; 31 response-evaluable patients,15 (48 %) patients
same,Best response: stable disease,"[5]; 31 response-evaluable patients, schedule A and B",15 patients and 15 (48 %) patients
same,Patients with stable disease lasting 6.5 months or longer,[5]; among the 15 patients who achieved stable disease,4 patients
same,Duration of response,[5]; [15],1.55 months
same,Overall duration of stable disease or better,[5]; [15],4.4 months
same,MTD,"[6]; Day 1, 2, 8, and 9 schedule",110 mg/m^2
same,MTD,"[6]; Days 1, 4, 8, and 11 of 21-day cycles",196 mg/m^2
same,DLTs,[6],"febrile neutropenia, AST elevation, muscle cramps, and thrombocytopenia"
same,MTD,"[7]; Days 1–5 and Days 1, 3, and 5 schedules",50–67 mg/m^2
same,DLTs,[7],"ALT elevation, AST elevation, and hyperbilirubinemia"
same,Duration of stable disease in another patient,[7]; [16],6 months
same,Patients achieving a partial response,[7]; [16],one
same,DLTs,[8],"multi-organ failure, reversible ALT elevation, AST/ALT elevation, cardiac failure, and acute renal failure"
same,MTD,"[8]; Days 1, 3, and 5 of 21-day cycles",50/59
same,MTD,"[8]; Days 1, 4, 8, and 11 schedule",83 mg/m^2
same,MTD,[9],20 mg/m^2
same,Fraction of the proteins regulated by the UPS whose proteasomal degradation is prevented,[10],~ 20%
same,Tmax,[11],1 h
same,clearance,[11],635 mL/min
same,half-life,[11],10.4 h
same,Dose proportionality of plasma exposure,[12],increased approximately proportionally with dose
same,Dose proportionality of plasma exposure,[12]; listed as Pevonedistat,approximately dose-proportional
same,AUC(0-inf),[12]; [17],8930 ng·h/mL
same,AUC(0-t),[12]; [17],7250 ng·h/mL
same,Cmax,[12]; [17],2450 ng/mL
same,Tmax,[12]; [17],1 h
same,clearance,[12]; [17],647 mL/min
same,half-life,[12]; [17],10.1 h
same,half-life,"[12]; human, plasma, iv",~10 h
same,Disposition profile following completion of the intravenous infusion,[12],biphasic disposition phase
same,Disposition profile following completion of the intravenous infusion,[12]; listed as Pevonedistat,biphasic disposition profile
